The results in this text go back to article PMC5653977 (EMBO Molecular Medicine, 2017).

Series [1] concerns pyramidal neurons of the prefrontal cortex. Kind of series: Spontaneous inhibitory postsynaptic currents (sIPSCs) in acute prefrontal cortex slices. The series is classed as cell-based, mouse. The conditions noted are these: 10 μM, bath application. As to the method: 300‐μm‐thick transverse slices comprising the medial prefrontal cortex (mPFC) area were prepared from 7‐ to 8‐week‐old C57Bl/6 mice as described previously (Teng et al, 2013; Agarwal et al, 2014). All recordings were performed in cortical layer V projection neurons. The bath solution consisted of oxygenated artificial cerebrospinal fluid (ACSF) containing NaCl 126 mM, KCl 3 mM, NaH2PO4 1.25 mM, MgSO4 1 mM, NaHCO3 26 mM, CaCl2 2 mM, glucose 10 mM, and the pH 7.2 adjusted with NaOH. Spontaneous GABAergic inhibitory postsynaptic currents (sIPSC) and evoked GABAergic inhibitory postsynaptic currents (eIPSC) were recorded at a holding potential of −70 mV in the presence of 6‐cyano‐7‐nitroquinoxaline‐2,3‐dione (CNQX, 10 μM) and DL‐2‐amino‐5‐phosphonovaleric acid (D‐APV, 50 μM). Glass pipettes were filled with the solution containing: KCl 140 mM, MgCl2 2 mM, CaCl2 1 mM, Na2GTP 0.5 mM, Na2ATP 4 mM, EGTA 10 mM, HEPES 10 mM. Patches with a series resistance of > 25 MΩ, a membrane resistance of < 0.8 GΩ, or leak currents of > 150 pA were excluded. Biphasic rectangular electric pulses (10 ms, 100–300 μA) were applied to layer I of the prelimbic area of mPFC through another glass pipette filled with ACSF. Synaptic currents were acquired at 20 kHz and filtered at 6 kHz, with a Digidata 1440 ADC‐converter coupled to a Multiclamp 700B amplifier (Molecular Devices, USA). Data acquisition was performed using pClamp10 software (Molecular Devices). MiniAnalysis 6.0.9 (Synaptosoft Inc., Decatur, USA) and pClamp10.1 were used for amplitude and frequency analysis of sIPSCs and eIPSCs, respectively. Paired Student's t‐test was used for statistical analysis.

In series [2] the target is T1, ERBB4 (Homo sapiens, UniProt Q15303). The series is described as follows: Western blot of ERBB4 phosphorylation in transfected PC12 cells. Particulars: PC12 cells transfected with ERBB4-NTEV-tevS-GV, 10 ng/ml EGFld, 10 μM, 1 h. It is filed as cell-based. As to the method:
After 24 h of expression, cells were treated as indicated and lysed in a 1% Triton‐X lysis buffer (50 mM Tris [pH 7.5], 150 mM NaCl, 1% Triton X‐100, 1 mM EGTA) supplemented with 10 mM NaF, 1 mM […], 1 mM ZnCl2 4.5 mM Na4P20_7, as phosphatase inhibitors, and the complete protease inhibitor cocktail (Roche).
Each blot was replicated two times.
A general note: A western blot detects proteins with antibodies after separation by electrophoresis.

For series [3], the system named is PC12 cells. The series is described as follows: Renilla luciferase readings as toxicity control in dose-response assay. The series is classed as cell-based. Particulars: dose-response co-culture assay, Nrg1 type I β1a, 24 h. The text has this:
For our HTS‐compatible split TEV assay approach, human full‐length ERBB4‐Cyt1 was fused to the NTEV fragment, a TEV protease cleavage site (tevS) and the artificial co‐transcriptional activator Gal4‐VP16 (ERBB4‐NTEV‐tevS‐GV); human PIK3R1 was fused to the CTEV fragment (PIK3R1‐CTEV) (Fig 1A). Upon ERBB4 activation, PIK3R1 is recruited to the receptor resulting in a reconstituted protease activity that cleaves off GV. In turn, released GV translocates to the nucleus and binds to upstream activating sequences (UAS) to activate the transcription of a firefly luciferase reporter gene (Fig 1A). A constitutively expressed Renilla luciferase driven under the control of the human thymidine kinase (TK) promoter was used as control to address off‐target effects related to toxicity.

For series [4], the target named is T2, ERBB4_1-685 dimers (Homo sapiens, UniProt Q15303).
T2 sequence (Q15303 26-685) 1: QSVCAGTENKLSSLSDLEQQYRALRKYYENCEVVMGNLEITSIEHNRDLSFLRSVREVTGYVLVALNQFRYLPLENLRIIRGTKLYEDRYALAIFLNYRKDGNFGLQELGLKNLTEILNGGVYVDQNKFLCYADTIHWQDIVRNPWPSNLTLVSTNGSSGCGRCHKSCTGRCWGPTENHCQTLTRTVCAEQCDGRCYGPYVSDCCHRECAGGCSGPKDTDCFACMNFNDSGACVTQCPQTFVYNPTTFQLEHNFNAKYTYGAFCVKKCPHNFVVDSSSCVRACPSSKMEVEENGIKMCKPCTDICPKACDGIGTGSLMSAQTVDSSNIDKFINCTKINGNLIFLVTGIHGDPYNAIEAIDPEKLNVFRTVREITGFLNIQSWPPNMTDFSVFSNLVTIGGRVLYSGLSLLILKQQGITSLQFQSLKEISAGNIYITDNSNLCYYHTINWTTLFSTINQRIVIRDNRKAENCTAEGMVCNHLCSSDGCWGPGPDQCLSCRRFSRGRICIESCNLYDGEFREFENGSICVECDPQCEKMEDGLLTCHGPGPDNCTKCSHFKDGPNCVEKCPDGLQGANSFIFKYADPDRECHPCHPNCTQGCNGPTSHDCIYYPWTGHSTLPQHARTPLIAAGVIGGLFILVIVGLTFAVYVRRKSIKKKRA
T2 sequence (Q15303 26-685) 2: T2 sequence (Q15303 26-685) 1
The series is described as follows: Truncated ERBB4 (amino acids 1-685) dimerization split TEV assay. Particulars: PC12 cells, 10 ng/ml EGFld.
Procedure: Individually re‐screened candidates were validated using a dose–response assay. PC12 cells were batch‐transfected as described in the section “Transfection of cells”, manually plated, and incubated for 24 h at 37°C and 5% CO2. Candidate small molecules were prepared in a series of dilutions using DMSO as diluent and ranging from 0.0001 to 100 μM at final concentrations, thus covering at least five orders of magnitude. Candidate dilutions were added, followed by the addition of 10,000 Nrg1‐expressing cells in 100 μl volume 30 min later. Cells were lysed in 40 μl Passive Lysis Buffer and analyzed in a Dual Luciferase Assay. Data were analyzed in Excel and GraphPad Prism. For single‐culture assays that used EGFld as stimulus, 100 μl assay medium containing EGFld (f.c. 10 ng/ml) was administered. […] Dose–response assays were run in six replicates per concentration and repeated at least two times. Data are shown as mean, and error bars represent SEM.

The subject of series [5] is Nrg1-tg and wt mice. The series is described as follows: Prepulse inhibition (PPI). The series is classed as in vivo, mouse. As to the method:
For behavioral testing, age‐matched male mice (8–16 weeks) on C57Bl/6 background that constitutively overexpress the 2xHA‐tagged Nrg1 type III β1a isoform (Nrg1‐tg) under the control of the mouse Thy1.2 promoter (Velanac et al, 2012) and their wild‐type (wt) littermates as controls were used. Animals were group‐housed in the same ventilated sound‐attenuated rooms under a 12‐h light/12‐h dark schedule (lights on at 8:00 am) at an ambient temperature of 21°C with food and water available ad libitum. One week prior to experiments, mice were separated into single cages and habituated to the experimental rooms. To minimize the influence of the circadian rhythm on drug actions, the treatment groups were analyzed at balanced time points during the light phase. […] All animal experiments were conducted in accordance with NIH principles of laboratory animal care and were approved by the Government of Lower Saxony, Germany, in accordance with the German Animal Protection Law.
Treatment was continued throughout the behavioral analysis period. To avoid injection‐induced stress prior to behavioral testing, mice were injected in the afternoon, after the entire cohort has completed the behavioral paradigm.
The startle response was measured using a two test cabinet (SR‐LAB, San Diego Instruments) using a protocol as described in Brzózka et al (2010).

The target in series [6] is T1, ERBB4. Kind of series: Western blot of ERBB4 phosphorylation in T-47D cells. The conditions noted are these: 10 ng/ml EGFld, 10 μM compound, 5 min.
Where [7] appears, read: 50 mg/kg s.c. daily for 3 weeks and throughout phenotyping, vs vehicle.
Setting [8] is: before vs after chronic treatment, 50 mg/kg s.c. daily.

T1 sequence (Q15303 26-1308): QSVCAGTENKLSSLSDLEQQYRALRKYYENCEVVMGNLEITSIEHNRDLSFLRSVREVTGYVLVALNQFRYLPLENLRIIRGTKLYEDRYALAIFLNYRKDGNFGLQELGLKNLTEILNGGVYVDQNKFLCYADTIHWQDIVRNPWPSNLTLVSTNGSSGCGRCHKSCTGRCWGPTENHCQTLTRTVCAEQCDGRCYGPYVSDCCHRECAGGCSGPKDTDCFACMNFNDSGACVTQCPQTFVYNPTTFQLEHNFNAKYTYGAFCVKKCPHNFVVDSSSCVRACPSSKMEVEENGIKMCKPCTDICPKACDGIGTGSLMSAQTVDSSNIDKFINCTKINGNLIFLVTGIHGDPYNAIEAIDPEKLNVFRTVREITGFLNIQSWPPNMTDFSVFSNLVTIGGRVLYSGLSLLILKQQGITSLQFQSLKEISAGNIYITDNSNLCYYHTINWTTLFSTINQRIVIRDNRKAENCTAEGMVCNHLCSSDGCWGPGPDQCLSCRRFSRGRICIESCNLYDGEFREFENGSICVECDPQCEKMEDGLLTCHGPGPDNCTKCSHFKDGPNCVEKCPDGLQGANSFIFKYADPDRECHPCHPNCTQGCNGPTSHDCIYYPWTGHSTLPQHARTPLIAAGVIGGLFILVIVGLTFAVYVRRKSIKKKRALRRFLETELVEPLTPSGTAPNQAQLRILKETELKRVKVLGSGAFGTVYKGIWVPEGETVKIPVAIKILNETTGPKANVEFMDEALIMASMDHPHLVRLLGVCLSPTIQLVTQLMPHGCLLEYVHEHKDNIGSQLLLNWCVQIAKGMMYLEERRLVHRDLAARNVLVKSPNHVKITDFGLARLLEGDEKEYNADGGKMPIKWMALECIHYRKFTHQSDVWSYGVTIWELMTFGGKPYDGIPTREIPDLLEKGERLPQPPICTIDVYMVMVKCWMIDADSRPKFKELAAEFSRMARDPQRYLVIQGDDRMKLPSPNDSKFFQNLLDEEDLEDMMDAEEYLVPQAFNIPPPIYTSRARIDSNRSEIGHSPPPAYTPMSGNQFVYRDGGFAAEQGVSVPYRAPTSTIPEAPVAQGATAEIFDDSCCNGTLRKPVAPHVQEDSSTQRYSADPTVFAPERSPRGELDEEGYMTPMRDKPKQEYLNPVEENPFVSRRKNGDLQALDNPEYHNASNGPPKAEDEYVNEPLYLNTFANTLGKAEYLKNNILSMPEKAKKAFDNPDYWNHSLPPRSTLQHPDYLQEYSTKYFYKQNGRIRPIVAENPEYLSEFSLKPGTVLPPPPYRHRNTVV

As to `CC(=O)S[C@@H]1CC2=CC(=O)CC[C@]2(C)[C@H]2CC[C@@]3(C)[C@@H](CC[C@@]34CCC(=O)O4)[C@H]12` [Spironolactone], in series [1], the sIPSC amplitude entry is “increase” and the sIPSC frequency result is reported as “increase”. In addition, the “ERBB4 phosphorylation levels at Tyr1056” value in series [2] was “reduces but not abolishes the phosphorylation levels”. The “toxic effects (reduced Renilla luciferase readings)” value in series [3] is on record as “marginal toxic effects at higher concentrations”. Besides, the “inhibitory effect on dimerization of truncated ERBB4” value in series [4] is reported as “no inhibitory effect”. In series [5] (setting [7]), the “PPI in Nrg1-tg mice, four-arm study” value was “significantly enhanced” and the “PPI in wt mice, four-arm study” value is “did not influence PPI”. In addition, in series [5] (setting [8]), the “PPI in Nrg1-tg mice, pilot two-arm study” value is recorded as “significantly improved” and the “PPI in wt controls, pilot two-arm study” value is recorded as “had no effect”. For the same compound, the “ERBB4 phosphorylation at Tyr1056 and Tyr1284” value in series [6] is on record as “reduced phosphorylation to intermediate levels”.
